The text below walks through data of ChEMBL document CHEMBL5252615, “Synthesis, biological activity and mechanism of action of novel allosecurinine derivatives as potential antitumor agents” (Bioorg Med Chem, 2023).

Common to all, as to type: functional, cell-based
The test system of experiment [1] is HL-60. Kind of experiment: Antitumor activity against human HL-60 cells assessed as reduction in cell viability incubated for 72 hrs. As to conditions: HL-60, 72 h.
The test system of experiment [2] is SK-OV-3. Kind of experiment: Antitumor activity against human SK-OV-3 cells assessed as reduction in cell viability incubated for 72 hrs. The following applies: SK-OV-3, 72 h.
The test system of experiment [3] is U-937. Kind of experiment: Antitumor activity against human U-937 cells assessed as reduction in cell viability incubated for 72 hrs. As to conditions: U-937, 72 h.
In experiment [4] the test system is THP-1. Kind of experiment: Antitumor activity against human THP-1 cells assessed as reduction in cell viability incubated for 72 hrs. As to conditions: THP-1, 72 h.
The subject of experiment [5] is SU-DHL-2. Kind of experiment: Antitumor activity against human SUDHL2 cells assessed as reduction in cell viability incubated for 72 hrs. As to conditions: SU-DHL-2, 72 h.
Experiment [6] relates to NB-4. Kind of experiment: Antitumor activity against human NB4 cells assessed as reduction in cell viability incubated for 72 hrs. As to conditions: NB-4, 72 h.
Experiment [7] relates to U-937. Kind of experiment: Induction of differentiation of human U-937 cells assessed as increase in CD11b expression at 0.5 uM measured after 72 hrs by flow cytometric analysis.
In experiment [8] the test system is KG-1. Kind of experiment: Induction of differentiation of human KG-1 cells assessed as increase in CD11b expression at 0.5 uM measured after 72 hrs by flow cytometric analysis.
In experiment [9] the test system is KG-1. Kind of experiment: Antitumor activity against human KG-1 cells assessed as reduction in cell viability incubated for 72 hrs. As to conditions: KG-1, 72 h.
For experiment [10], the system named is K562. Kind of experiment: Antitumor activity against human K562 cells assessed as reduction in cell viability incubated for 72 hrs. As to conditions: K562, 72 h.
Experiment [11] concerns NB-4. Kind of experiment: Induction of differentiation of human NB4 cells assessed as increase in CD11b expression at 0.5 uM measured after 72 hrs by flow cytometric analysis.
Experiment [12] relates to SK-OV-3. Kind of experiment: Antitumor activity against taxol-resistant human SK-OV-3 cells assessed as reduction in cell viability incubated for 72 hrs. As to conditions: SK-OV-3, 72 h.
Experiment [13] has as its system THP-1. Kind of experiment: Induction of differentiation of human THP1 cells assessed as increase in CD11b expression at 0.5 uM measured after 72 hrs by flow cytometric analysis.
For experiment [14], the system named is HL-60. Kind of experiment: Induction of differentiation of human HL-60 cells assessed as increase in CD11b expression at 0.5 uM measured after 72 hrs by flow cytometric analysis.

Activity calls are given as the source filed them. No cut-off for these calls is given here.

With `O=C1O[C@@]23C[C@@H](C=CC2=C1C(O)c1cccc([N+](=O)[O-])c1)N1CCCC[C@H]13` (stereo partly drawn), the IC50 in [1] came to 6.2 µM; in [2], 3.11 µM; in experiment [3] it was 4.64 µM; in [4], 12 µM; in experiment [5], 9.28 µM; in [6], 3.01 µM. Besides, the concentration for half-maximal inhibition (IC50) in [9] was 1.98 µM; in experiment [10], 2.69 µM; in experiment [12], 3.5 µM. Besides, the result in [7], in experiment [8], in [11], in experiment [13] and in experiment [14] was Active.
Consider `N#Cc1ccc(C(O)C2=C3C=C[C@@H]4C[C@@]3(OC2=O)[C@@H]2CCCCN42)cc1` (stereo partly drawn), for which the IC50 came out at 7.16 µM in [1]; 4.18 µM in [2]; 2.2 µM in [3]; 15.6 µM in [4]; 19.3 µM in [5]; 3.84 µM in experiment [6]. Also, the IC50 in experiment [9] worked out at 2.57 µM; in experiment [10], 3.11 µM; in experiment [12] it was 4.54 µM.
